Laboratory results published in patent publication US10670605B2, “Cysteine reactive probes and uses thereof” (The Scripps Research Institute, priority 2015, dated 2020).
Values joined by “and” are separate entries in the source; they are usually repeats but may differ in a detail not shown here. Equal entries are not always repeated.

Experiments:
Experiment in all cases: Competitive isoTOP-ABPP, cell lysates
Assay type in all cases: binding
[1] = molecular target: CASP8 C360 (Q14790) (Homo sapiens, UniProt Q14790); details: for isoTOP-ABPP ratio Q14790_C360: 500 μM, invitro
Chain of CASP8 C360 (Q14790) (Q14790 whole entry): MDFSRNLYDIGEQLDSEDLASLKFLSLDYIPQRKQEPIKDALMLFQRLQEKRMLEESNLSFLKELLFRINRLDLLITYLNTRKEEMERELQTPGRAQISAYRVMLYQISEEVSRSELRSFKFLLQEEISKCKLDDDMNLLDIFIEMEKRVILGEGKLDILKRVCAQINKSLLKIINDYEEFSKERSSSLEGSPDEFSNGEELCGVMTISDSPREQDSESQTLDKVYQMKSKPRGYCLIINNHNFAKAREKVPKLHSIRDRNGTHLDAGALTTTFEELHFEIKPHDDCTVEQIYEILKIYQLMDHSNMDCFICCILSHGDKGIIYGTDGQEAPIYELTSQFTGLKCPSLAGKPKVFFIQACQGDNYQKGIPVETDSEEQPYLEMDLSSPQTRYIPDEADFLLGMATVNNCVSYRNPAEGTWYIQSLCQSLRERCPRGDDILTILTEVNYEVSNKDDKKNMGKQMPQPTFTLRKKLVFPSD

[2] = molecular target: T1, IRF4 C194 (Q15306) (Homo sapiens, UniProt Q15306); details: for isoTOP-ABPP ratio (reactivity profile), Q15306_C194: 500 μm in-vitro ramos
T1 sequence (Q15306 1-451): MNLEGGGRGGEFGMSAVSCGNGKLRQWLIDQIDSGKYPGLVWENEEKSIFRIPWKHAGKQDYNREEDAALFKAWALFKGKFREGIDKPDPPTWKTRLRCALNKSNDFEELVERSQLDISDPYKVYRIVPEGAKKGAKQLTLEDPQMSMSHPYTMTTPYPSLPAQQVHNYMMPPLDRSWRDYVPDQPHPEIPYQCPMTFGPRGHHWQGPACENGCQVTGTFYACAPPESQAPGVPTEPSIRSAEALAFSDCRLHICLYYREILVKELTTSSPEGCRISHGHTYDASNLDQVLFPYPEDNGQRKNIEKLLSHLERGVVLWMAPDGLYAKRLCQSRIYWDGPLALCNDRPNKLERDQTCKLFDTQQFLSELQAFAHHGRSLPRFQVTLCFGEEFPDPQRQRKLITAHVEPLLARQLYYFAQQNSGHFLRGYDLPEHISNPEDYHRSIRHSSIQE

[3] = molecular target: SMARCC2 C145 (Q8TAQ2) (Homo sapiens, UniProt Q8TAQ2)
Chain of SMARCC2 C145 (Q8TAQ2) (Q8TAQ2 whole entry): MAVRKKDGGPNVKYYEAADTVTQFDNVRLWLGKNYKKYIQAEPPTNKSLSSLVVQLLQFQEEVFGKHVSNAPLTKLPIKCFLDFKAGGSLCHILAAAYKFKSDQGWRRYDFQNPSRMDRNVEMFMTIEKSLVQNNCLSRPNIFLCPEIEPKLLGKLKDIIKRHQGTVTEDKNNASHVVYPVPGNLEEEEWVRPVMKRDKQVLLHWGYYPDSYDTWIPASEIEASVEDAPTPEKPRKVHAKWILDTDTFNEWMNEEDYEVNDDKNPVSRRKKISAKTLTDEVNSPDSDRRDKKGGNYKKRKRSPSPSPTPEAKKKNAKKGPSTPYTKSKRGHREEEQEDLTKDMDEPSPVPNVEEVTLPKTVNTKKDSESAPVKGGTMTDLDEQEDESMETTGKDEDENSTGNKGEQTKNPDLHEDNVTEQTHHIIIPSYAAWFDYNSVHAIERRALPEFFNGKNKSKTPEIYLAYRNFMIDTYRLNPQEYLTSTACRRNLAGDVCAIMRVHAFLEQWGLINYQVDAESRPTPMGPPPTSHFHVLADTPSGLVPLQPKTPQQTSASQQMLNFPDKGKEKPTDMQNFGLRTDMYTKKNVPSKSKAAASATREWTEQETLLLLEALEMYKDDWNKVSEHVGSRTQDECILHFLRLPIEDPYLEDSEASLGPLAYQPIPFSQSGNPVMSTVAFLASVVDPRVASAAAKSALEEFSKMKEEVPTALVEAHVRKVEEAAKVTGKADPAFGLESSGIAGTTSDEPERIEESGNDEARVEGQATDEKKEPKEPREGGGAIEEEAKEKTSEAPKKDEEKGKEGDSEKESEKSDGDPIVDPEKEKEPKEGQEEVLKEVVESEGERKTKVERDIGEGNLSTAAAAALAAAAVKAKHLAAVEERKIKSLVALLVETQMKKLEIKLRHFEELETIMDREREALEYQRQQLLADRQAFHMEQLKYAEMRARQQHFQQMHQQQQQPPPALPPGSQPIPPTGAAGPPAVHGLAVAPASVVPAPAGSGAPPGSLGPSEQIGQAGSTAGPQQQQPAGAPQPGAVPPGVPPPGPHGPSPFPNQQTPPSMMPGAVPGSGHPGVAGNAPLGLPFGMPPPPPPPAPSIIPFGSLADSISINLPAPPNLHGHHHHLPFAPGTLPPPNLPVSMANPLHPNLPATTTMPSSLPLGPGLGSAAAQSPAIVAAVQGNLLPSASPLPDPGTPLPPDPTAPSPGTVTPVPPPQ

[4] = molecular target: T2, USP22 C171 (Q9UPT9) (Homo sapiens, UniProt Q9UPT9); details: for isoTOP-ABPP ratio (reactivity profile), Q9UPT9_C171: 500 μm in-vitro ramos
T2 sequence (Q9UPT9 1-525): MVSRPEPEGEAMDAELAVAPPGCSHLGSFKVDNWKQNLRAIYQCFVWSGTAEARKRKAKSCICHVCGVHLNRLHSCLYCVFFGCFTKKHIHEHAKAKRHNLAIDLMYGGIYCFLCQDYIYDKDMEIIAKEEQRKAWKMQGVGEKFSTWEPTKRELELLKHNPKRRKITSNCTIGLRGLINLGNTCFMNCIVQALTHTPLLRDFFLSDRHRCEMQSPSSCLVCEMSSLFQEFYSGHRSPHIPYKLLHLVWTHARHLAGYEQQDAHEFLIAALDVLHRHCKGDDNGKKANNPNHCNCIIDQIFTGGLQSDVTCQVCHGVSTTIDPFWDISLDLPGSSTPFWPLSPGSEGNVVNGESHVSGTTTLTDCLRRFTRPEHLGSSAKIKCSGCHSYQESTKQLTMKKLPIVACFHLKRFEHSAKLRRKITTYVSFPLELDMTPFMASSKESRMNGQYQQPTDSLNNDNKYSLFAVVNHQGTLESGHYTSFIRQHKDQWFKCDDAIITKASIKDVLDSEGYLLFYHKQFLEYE

[5] = molecular target: T3, ACAT1 C119 (P24752) (Homo sapiens, UniProt P24752); details: for isoTOP-ABPP reactivity ratio, P24752_C119: 500 μm; for isoTOP-ABPP ratio P24752_C119: 500 μM, invitro
T3 sequence (P24752 34-427): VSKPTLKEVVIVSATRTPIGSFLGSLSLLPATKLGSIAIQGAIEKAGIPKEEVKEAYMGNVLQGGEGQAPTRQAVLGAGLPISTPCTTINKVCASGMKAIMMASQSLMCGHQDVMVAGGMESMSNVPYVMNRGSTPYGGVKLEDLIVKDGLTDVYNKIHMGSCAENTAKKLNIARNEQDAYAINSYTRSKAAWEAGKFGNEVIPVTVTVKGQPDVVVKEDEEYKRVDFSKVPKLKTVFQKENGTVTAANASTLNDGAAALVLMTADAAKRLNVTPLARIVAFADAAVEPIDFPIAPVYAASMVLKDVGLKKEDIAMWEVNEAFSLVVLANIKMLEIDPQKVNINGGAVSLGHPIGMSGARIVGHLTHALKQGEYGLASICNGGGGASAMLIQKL

[6] = molecular target: T4, ACAT1 C196 (P24752) (Homo sapiens, UniProt P24752); details: for isoTOP-ABPP reactivity ratio, P24752_C196: 500 μm; for isoTOP-ABPP ratio, P24752_C196: 500 μM, invitro
T4 sequence (P24752 34-427): T3 sequence (P24752 34-427)

[7] = molecular target: T5, ACAT1 C413 (P24752) (Homo sapiens, UniProt P24752); details: for isoTOP-ABPP ratio P24752_C413: 500 μM, invitro
T5 sequence (P24752 34-427): T3 sequence (P24752 34-427)

[8] = molecular target: T6, ACAT1 C126 (P24752) (Homo sapiens, UniProt P24752); details: for isoTOP-ABPP ratio, P24752_C126: 500 μM, invitro
T6 sequence (P24752 34-427): T3 sequence (P24752 34-427)

| SMILES | isoTOP-ABPP ratio (reactivity profile), Q14790_C360 ([1]; 500 μm in-vitro ramos) | isoTOP-ABPP ratio (reactivity profile), Q14790_C360 ([1]; 500 μm in-vitro ramos_231) | isoTOP-ABPP ratio (reactivity profile), Q15306_C194 [2] | isoTOP-ABPP ratio (reactivity profile), Q8TAQ2_C145 ([3]; 500 μm in-vitro ramos) | isoTOP-ABPP ratio (reactivity profile), Q8TAQ2_C145 ([3]; 500 μm in-vitro ramos_231) | isoTOP-ABPP ratio (reactivity profile), Q9UPT9_C171 [4] | isoTOP-ABPP ratio (reactivity profile), P24752_C119 ([5]; 500 μm in-vitro ramos) | isoTOP-ABPP ratio (reactivity profile), P24752_C119 ([5]; 500 μm in-vitro ramos_231) | isoTOP-ABPP ratio (reactivity profile), P24752_C196 ([6]; 500 μm in-vitro ramos) | isoTOP-ABPP ratio (reactivity profile), P24752_C196 ([6]; 500 μm in-vitro ramos_231) | isoTOP-ABPP ratio (reactivity profile), P24752_C413 ([7]; 500 μm in-vitro ramos) | isoTOP-ABPP ratio (reactivity profile), P24752_C413 ([7]; 500 μm in-vitro ramos_231) | isoTOP-ABPP ratio (reactivity profile), P24752_C126 ([8]; 500 μm in-vitro ramos) | isoTOP-ABPP ratio (reactivity profile), P24752_C126 ([8]; 500 μm in-vitro ramos_231) | also measured |
| --- | --- | --- | --- | --- | --- | --- | --- | --- | --- | --- | --- | --- | --- | --- | --- |
| O=C(CCl)Nc1ccccc1C1CCCCCC1 [compound 35] | – | – | – | – | – | – | – | – | – | – | – | – | – | – | isoTOP-ABPP reactivity ratio, Q14790_C360 ([1]; 500 μm, in-vitro_ramos): 1.3; isoTOP-ABPP reactivity ratio, Q15306_C194 ([2]; 500 μm, in-vitro_ramos): 1.0; isoTOP-ABPP reactivity ratio, Q8TAQ2_C145 ([3]; 500 μm, in-vitro_ramos_231): 0.9; isoTOP-ABPP reactivity ratio, Q9UPT9_C171 ([4]; 500 μm, in-vitro_ramos): 1.5; isoTOP-ABPP reactivity ratio, P24752_C119 ([5]; in-vitro_ramos): 1.0; isoTOP-ABPP reactivity ratio, P24752_C119 ([5]; in-vitro_ramos_231): 0.9; isoTOP-ABPP reactivity ratio, P24752_C196 ([6]; in-vitro_ramos): 1.4; isoTOP-ABPP reactivity ratio, P24752_C196 ([6]; in-vitro_ramos_231): 0.9; isoTOP-ABPP reactivity ratio, P24752_C413 ([7]; 500 μm, in-vitro_ramos): 1.3; isoTOP-ABPP reactivity ratio, P24752_C126 ([8]; 500 μm, in-vitro_ramos): 10.4 |
| O=C(CCl)N1CCN(S(=O)(=O)c2ccccc2F)CC1 [compound 10] | – | – | – | – | – | – | – | – | – | – | – | – | – | – | isoTOP-ABPP ratio Q14790_C360 [1]; 231: 2.8; isoTOP-ABPP ratio Q14790_C360 ([1]; ramos): 1.5; isoTOP-ABPP ratio, Q15306_C194 ([2]; 500 μM, invitro, ramos): 2.5; isoTOP-ABPP ratio Q8TAQ2_C145 ([3]; 500 μM, invitro, 231): 4.2; isoTOP-ABPP ratio, Q9UPT9_C171 ([4]; 500 μM, invitro, ramos): 3.8; isoTOP-ABPP ratio P24752_C119 [5]; 231: 1.5; isoTOP-ABPP ratio P24752_C119 ([5]; ramos): 1.4; isoTOP-ABPP ratio, P24752_C196 [6]; 231: 2.5; isoTOP-ABPP ratio, P24752_C196 ([6]; ramos): 1.7; isoTOP-ABPP ratio P24752_C413 [7]; 231: 13.0; isoTOP-ABPP ratio P24752_C413 ([7]; ramos): 1.6; isoTOP-ABPP ratio, P24752_C126 [8]; 231: 3.2; isoTOP-ABPP ratio, P24752_C126 ([8]; ramos): 1.5 |
| CC(C)CCOCCNC(=O)CCl [compound 27] | 1.2 | 0.8 | 1.0 | 1.2 | 0.9 | 1.2 | 1.0 | 0.9 and 1.0 | 1.1 | 0.9 and 1.0 | 1.3 | 0.9 and 1.1 | 1.3 | 0.9 and 1.0 | – |
| O=C(CCl)N1CCC(C(O)(c2ccccc2)c2ccccc2)CC1 [compound 20] | 1.5 | 1.9 | 3.0 | 3.9 | 2.9 | 20.0 | 2.6 | 3.6 | 2.9 | 3.7 | 14.0 | 20.0 | 20.0 | 10.6 | – |
